# Target: T1, KRAS G12C 1-169, his-tagged protein, GDP-loaded (Homo sapiens, UniProt P01116, G12C)
# T1 construct: KRAS G12C 1-169, his-tagged protein, GDP-loaded
# Test: Biochemical assay: covalent binding (modification) of KRAS G12C measured by mass spectrometry
# Details: covalent binding to KRAS G12C after a thirty minute incubation period
# Method: Test compounds were prepared as 10 mM stock solutions in DMSO (Fisher cat #BP-231-100). KRAS G12C 1-169, his-tagged protein, GDP-loaded was diluted to 2 μM or 0.5 μM in buffer (20 mM Hepes, 150 mM NaCl, 1 mM MgCl2). Compounds were tested for activity as follows:
# Compounds were diluted to 50× final test concentration in DMSO in 96-well storage plates. Compound stock solutions were vortexed before use and observed carefully for any sign of precipitation. Dilutions were as follow: • For 100 μM final compound concentration, compounds were diluted to 5000 μM (5 μL 10 mM compound stock+5 μL DMSO and mixed well by pipetting. • For 30 μM final compound concentration, compounds were diluted to 1500 μM (3 μL 10 mM compound stock+17 μL DMSO) and mixed well by pipetting. • For 10 μM final compound concentration, compounds were diluted to 500 μM (2 μL 10 mM compound stock+38 μL DMSO) and mixed well by pipetting. 49 μL of the stock protein solution was added to each well of a 96-well PCR plate (Fisher cat #1423027). 1 μl of the diluted 50× compounds were added to appropriate wells in the PCR plate using 12-channel pipettor. Reactions were mixed carefully and thoroughly by pipetting up/down with a 200 μL multi-channel pipettor. The plate was sealed well with aluminum plate seal, and stored in drawer at room temperature for 10 minutes, 30 minutes, 2 hours or 24 hours. 5 μL of 2% formic acid (Fisher cat #A117) in de-ionized H2O was then added to each well followed by mixing with a pipette. The plate was then resealed with aluminum seal and stored on dry ice until analyzed as described below.
# The above described assays were analyzed by mass spectrometry according to one of the following two procedures:
# The MS instrument is set to positive polarity, 2 GHz resolution, and low mass (1700) mode and allowed to equilibrate for 30 minutes. The instrument is then calibrated, switched to acquisition mode and the appropriate method loaded.
# After another 30 minute equilibration time, a blank batch (i.e., buffer) is run to ensure equipment is operating properly. The samples are thawed at 37° C. for 10 minutes, briefly centrifuged, and transfer to the bench top. Wells A1 and H12 are spiked with 1 μL 500 μM internal standard peptide, and the plates centrifuged at 2000×g for 5 minutes. The method is then run and masses of each individual well recorded.
# The masses (for which integration data is desired) for each well are pasted into the platemap and exported from the analysis. Masses for the internal standards are exported as well. The data at 50 ppm is extracted for the +19 charge state, and identity of well A1 is assigned using the internal standard spike and integrated. Peak data is exported as a TOF list and the above steps are repeated individually, for the +20, 21, 22, 23, 24, and 25 charge states.
# The masses and peak intensities of KRAS G12C protein species were measured using a Dionex RSLCnano system (Thermo Scientific) connected to a Q Exactive Plus mass spectrometer (Thermo Scientific).
# […] of sample was each loaded onto a Aeris™ 3.6 μm WIDEPORE C4 200 A, LC Column 50×2.1 mm column maintained at 40° C. at a flow rate of 600 μL/min with […] (0.1% formic acid in acetonitrile). The liquid chromatography conditions were 20% solvent B for 1 minute, 20% to 60% solvent B for 1.5 minutes, 60% to 90% solvent for 0.5 minute, 90% solvent B for 0.2 minute, 90% to 20% solvent B for 0.2 minute, and then equilibrated for 1.6 minute before the following sample injection. The flow rate was maintained at 600 μL/min throughout the sample analysis.
# The mass spectrometer was operated in profile mode at a resolution of 17500, 5 microscans, using 50 msec max injection time and an AGC target of 1×10^6, and a full mass range from 800-1850 m/z was recorded. The HCD trapping gas was optimized for maximum sensitivity for intact proteins. […]
row,SMILES,Binding %
1,"C=CC(=O)N1CC(c2ccc3c(c2)CCCN(c2cccc4[nH]ncc24)C3)C1 [Compound 5, 1-(3-(2-(1H-indazol-4-yl)-2,3,4,5-tetrahydro-1H-benzo[c]azepin-7-yl)azetidin-1-yl)prop-2-en-1-one]",+ (+ indicates binding activity up to 5%)
2,"C=CC(=O)N1CC(c2ccc3c(c2)CN(c2cc(O)cc4ccccc24)C3)C1 [Compound 6, 1-(3-(2-(3-hydroxynaphthalen-1-yl)isoindolin-5-yl)azetidin-1-yl)prop-2-en-1-one]",+++ (+++ indicates binding activity greater than 50%)
3,"C=CC(=O)N1CC(c2ccc3c(c2)CN(c2cc(O)cc4ccccc24)C3=O)C1 [Compound 8, 5-(1-acryloylazetidin-3-yl)-2-(3-hydroxynaphthalen-1-yl)isoindolin-1-one]",+++ (+++ indicates binding activity greater than 50%)
4,"C=CC(=O)N1CC(c2ccc3c(c2)CN(c2c(C)ccc4[nH]ncc24)C3=O)C1 [Compound 9, 5-(1-acryloylazetidin-3-yl)-2-(5-methyl-1H-indazol-4-yl)isoindolin-1-one]",+ (+ indicates binding activity up to 5%)
5,"C=CC(=O)N1CC(c2ccc3c(c2)C(=O)N(c2cc(O)cc4ccccc24)C3)C1 [Compound 10, 6-(1-acryloylazetidin-3-yl)-2-(3-hydroxynaphthalen-1-yl)isoindolin-1-one]",++ (++ indicates binding activity from 5% to 50%)
6,"C=CC(=O)N1CC(c2ccc3c(c2)C(=O)N(c2c(C)ccc4[nH]ncc24)C3)C1 [Compound 11, 6-(1-acryloylazetidin-3-yl)-2-(5-methyl-1H-indazol-4-yl)isoindolin-1-one]",+ (+ indicates binding activity up to 5%)
7,"C=CC(=O)N1CC(c2ccc3[nH]c(-c4cc(O)cc5ccccc45)cc3c2)C1 [Compound 14, 1-(3-(2-(3-hydroxynaphthalen-1-yl)-1H-indol-5-yl)azetidin-1-yl)prop-2-en-1-one]",+++ (+++ indicates binding activity greater than 50%)
8,"C=CC(=O)N1CC(c2ccc3c(=O)n(-c4cc(O)cc5ccccc45)ccc3c2)C1 [Compound 18, 6-(1-acryloylazetidin-3-yl)-2-(3-hydroxynaphthalen-1-yl)isoquinolin-1(2H)-one]",+++ (+++ indicates binding activity greater than 50%)
9,"C=CC(=O)N1CC(c2ccc3c(=O)n(-c4c(C)ccc5[nH]ncc45)ccc3c2)C1 [Compound 19, 6-(1-acryloylazetidin-3-yl)-2-(5-methyl-1H-indazol-4-yl)isoquinolin-1(2H)-one]",+ (+ indicates binding activity up to 5%)
10,"C=CC(=O)N1CC(c2ccc3cn(-c4cc(O)cc5ccccc45)c(=O)cc3c2)C1 [Compound 22, 6-(1-acryloylazetidin-3-yl)-2-(3-hydroxynaphthalen-1-yl)isoquinolin-3(2H)-one]",+ (+ indicates binding activity up to 5%)
11,"C=CC(=O)N1CC(c2ccc3cn(-c4c(C)ccc5[nH]ncc45)c(=O)cc3c2)C1 [Compound 23, 6-(1-acryloylazetidin-3-yl)-2-(5-methyl-1H-indazol-4-yl)isoquinolin-3(2H)-one]",+ (+ indicates binding activity up to 5%)
12,"C=CC(=O)N1CC(c2ccc3c(c2)NC(=O)N(c2cc(O)cc4ccccc24)C3)C1 [Compound 24, 7-(1-acryloylazetidin-3-yl)-3-(3-hydroxynaphthalen-1-yl)-3,4-dihydroquinazolin-2(1H)-one]",+++ (+++ indicates binding activity greater than 50%)
13,"C=CC(=O)N1CC(c2ccc3c(c2)NC(=O)N(c2c(C)ccc4[nH]ncc24)C3)C1 [Compound 25, 7-(1-acryloylazetidin-3-yl)-3-(5-methyl-1H-indazol-4-yl)-3,4-dihydroquinazolin-2(1H)-one]",++ (++ indicates binding activity from 5% to 50%)
14,"C=CC(=O)N1CC(c2ccc3cc(-c4cc(O)cc5ccccc45)ncc3c2)C1 [Compound 26, 1-(3-(3-(3-hydroxynaphthalen-1-yl)isoquinolin-7-yl)azetidin-1-yl)prop-2-en-1-one]",++ (++ indicates binding activity from 5% to 50%)
15,"C=CC(=O)N1CCC(c2ccc3c(c2)CCN(c2c(C)ccc4[nH]ncc24)C3=O)C1 (centres unmarked) [Compound 32, 6-(1-acryloylpyrrolidin-3-yl)-2-(5-methyl-1H-indazol-4-yl)-3,4-dihydroisoquinolin-1(2H)-one]",+ (+ indicates binding activity up to 5%)
16,"C=CC(=O)N1CC(c2ccc3cc(-c4cc(O)cc5ccccc45)[nH]c3c2)C1 [Compound 33, 1-(3-(2-(3-hydroxynaphthalen-1-yl)-1H-indol-6-yl)azetidin-1-yl)prop-2-en-1-one]",++ (++ indicates binding activity from 5% to 50%)
17,"C=CC(=O)N1CC(c2ccc3cc(-c4cc(O)cc5ccccc45)n(CC(N)=O)c3c2)C1 [Compound 34, 2-(6-(1-acryloylazetidin-3-yl)-2-(3-hydroxynaphthalen-1-yl)-1H-indol-1-yl)acetamide]",+ (+ indicates binding activity up to 5%)
18,"C=CC(=O)N1CC(c2ccc3cc(-c4c(C)ccc5[nH]ncc45)[nH]c3c2)C1 [Compound 35, 1-(3-(2-(5-methyl-1H-indazol-4-yl)-1H-indol-6-yl)azetidin-1-yl)prop-2-en-1-one]",+ (+ indicates binding activity up to 5%)
19,"C=CC(=O)N1CC(c2ccc3c(Nc4cc(O)cc5ccccc45)ncnc3c2)C1 [Compound 36, 1-(3-(4-((3-hydroxynaphthalen-1-yl)amino)quinazolin-7-yl)azetidin-1-yl)prop-2-en-1-one]",+ (+ indicates binding activity up to 5%)
20,"C=CC(=O)N1CC(Nc2cccc3c(-c4cc(O)cc5ccccc45)ccnc23)C1 [Compound 37, 1-(3-((4-(3-hydroxynaphthalen-1-yl)quinolin-8-yl)amino)azetidin-1-yl)prop-2-en-1-one]",+++ (+++ indicates binding activity greater than 50%)
21,"C=CC(=O)N1CC(c2ccc3c(Nc4c(C)ccc5[nH]ncc45)ncnc3c2)C1 [Compound 38, 1-(3-(4-((5-methyl-1H-indazol-4-yl)amino)quinazolin-7-yl)azetidin-1-yl)prop-2-en-1-one]",+ (+ indicates binding activity up to 5%)
22,"C=CC(=O)N1CC(NC(=O)c2ccc3c(-c4cc(O)cc5ccccc45)ccnc3c2)C1 [Compound 39, N-(1-acryloylazetidin-3-yl)-4-(3-hydroxynaphthalen-1-yl)quinoline-7-carboxamide]",++ (++ indicates binding activity from 5% to 50%)
23,"C=CC(=O)N1CC(c2ccc3c(c2)cc(-c2cc(O)cc4ccccc24)n3CC(N)=O)C1 [Compound 40, 2-(5-(1-acryloylazetidin-3-yl)-2-(3-hydroxynaphthalen-1-yl)-1H-indol-1-yl)acetamide]",++ (++ indicates binding activity from 5% to 50%)

# Source: patent publication US20230147053A1, “FUSED N-HETEROCYCLIC COMPOUNDS AND METHODS OF USE THEREOF” (Araxes Pharma LLC, priority 2017, published 2023)
